Measured values taken from patent publication US10344034B2, “Pyrazolopyrimidone or Pyrrolotriazone derivatives, method of preparing same, and pharmaceutical applications thereof” (Shanghai Hengrui Pharmaceutical Co., Ltd., priority 2013, dated 2019).

Tests used:
[1] = Rabbit pharmacokinetics assay; type: in vivo, New Zealand rabbits; details: for AUC: read-out: Area under curve AUC; for half-life: read-out: Half-life T1/2 (converted); for MRT: read-out: Residence time MRT
Description: Test Example 5. Rabbit Pharmacokinetics Assay of Example 11 of the Present Invention
Rabbits were used as test animals. The plasma concentrations at various times were determined by LC/MS/MS after intragastric administration of the compound of Example 11, and intravenous administration of the compound of Example 11 to rabbits. The pharmacokinetic behavior of the present compound in rabbits was studied, and the pharmacokinetic features were evaluated.
Six (6) healthy New Zealand Rabbits (female) were evenly designated into 2 groups. The animals were purchased from Jie Sijie Corp. Ltd.
An appropriate amount of sample was weighed, and added with 0.5% CMC-Na to form […] suspension upon ultrasonic treatment.
Appropriate amounts of drugs were weighed, and dissolved with 1 ml DMSO and 1 ml of Tween 80. Saline solution was added to the final volume.
Six (6) healthy New Zealand rabbits (female) were evenly designated into 2 groups, and administered by oral gavage or intravenous injection (i.v.) (oral gavage at a dosage of 30 mg/kg with an administration volume of 5 ml/kg, and i.v. at a dosage of 5 mg/kg with an administration volume of 2 ml/kg) after fasting overnight.
0.2 ml of blood was sampled before and 5 minutes, 0.25, 0.5, 1, 2, 4, 8, 11, 24 hours after intravenous administration, collected in a heparinized test tube, and centrifuged at 3500 rpm for 10 minutes to separate the plasma, which was stored at −20° C. Blood was sampled before, and 0.5, 1, 2, 4, 6, 8, 11, and 24 hours after oral administration, and treated the same as that of the intravenous administration group. The content of the test compound in the plasma of rabbits after administration of the compound by oral gavage and intravenous injection was determined by LC/MS/MS.

human GnRHr = human GnRHr (Homo sapiens (Human), UniProt P30968); assay: Human GnRHr (GnRH receptor) activity assay, Fluo-4 calcium signal in Human GnRHr/CHO stably transfected cell lines; type: cell-based; details: Human GnRHr/CHO cells, GnRH polypeptide stimulant
human GnRHr, sequence (P30968 whole entry): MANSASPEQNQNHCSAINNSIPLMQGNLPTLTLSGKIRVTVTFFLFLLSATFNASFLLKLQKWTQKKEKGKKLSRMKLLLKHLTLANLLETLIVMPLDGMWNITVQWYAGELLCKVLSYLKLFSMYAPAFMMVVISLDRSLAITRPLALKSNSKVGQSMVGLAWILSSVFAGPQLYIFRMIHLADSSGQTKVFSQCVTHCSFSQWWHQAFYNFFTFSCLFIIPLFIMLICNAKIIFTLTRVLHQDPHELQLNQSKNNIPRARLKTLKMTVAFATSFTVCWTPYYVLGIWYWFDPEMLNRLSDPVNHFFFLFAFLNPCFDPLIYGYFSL
Description: Test Example 1. Human GnRHr (GnRH Receptor) Activity Assay of the Present Compounds.
In vitro GnRHr protein activity was tested by the following methods.
This assay was used to determine the inhibition effect of the present compound on the activity of human GnRHr protein expressed by Human GnRHr/CHO stably transfected cell lines.
A mammalian expression vector containing the human GnRHr gene was transferred into CHO cells by adding Lipofectamine® LTX reagent containing Plus™. Antibiotics were added the next day for screening to pick out the monoclonal cell lines.
The Human GnRHr/CHO stably transfected cell lines were inoculated in 96-well plates with an inoculation density of 25,000 cells/well. The culture medium was removed the next day, and loading buffer containing Fluo-4 dye was added to the plate (100 μL/well) and incubated for 30 minutes at 37° C. The plate was moved to room temperature and equilibrated for 10 minutes. Each compound was diluted with DMSO to seven concentration gradients of 100 μM, 10 μM, 1 μM, 0.1 μM, 0.01 μM, 0.001 μM, 0.0001 μM. Then, 1 μl of each gradient was added to each well and incubated for 10 minutes at room temperature. After automated addition of 50 μL of GnRH polypeptide stimulant solution, the value was immediately detected at 494/516 […] by a microplate reader (flexstation 3). IC50 values of the compounds were calculated by software from different fluorescence signals at various corresponding concentrations.
The inhibitory activity of the present compounds on human GnRHr was determined by the above assay, and IC50 values are shown in Table 1.

[2] = Rat pharmacokinetics assay; type: in vivo, Sprague-Dawley (SD) rats; details: for AUC: read-out: Area under curve AUC; for half-life: read-out: Half-life T1/2 (converted); for MRT: read-out: Residence time MRT
Description: Test Example 4. Rat pharmacokinetics assay of the compounds of Example 2, Example 3, Example 5, Example 9, Example 10, Example 11, and Example 13 of the present invention.
Sprague-Dawley (SD) rats were used as test animals. The plasma concentrations at various times were determined by LC/MS/MS after intragastric administration of compounds of Example 2, Example 3, Example 5, Example 9, Example 10, Example 11, and Example 13, and intravenous administration of the compound of Example 11 to the rats. The pharmacokinetic behavior of the present compounds in rats was studied, and the pharmacokinetic features were evaluated.
Thirty-two (32) healthy adult SD rats (half female and half male) were evenly designated into 8 groups (4 for each group). The animals were purchased from Shanghai Super B&K Laboratory Animal Corp. Ltd (laboratory animal production Certificate No. SCXK (HU)2008-0016).
An appropriate amount of sample was weighed, and added with 0.5% CMC-Na to form a 1 mg/ml suspension upon ultrasonic treatment.
Appropriate amounts of drugs were weighed, and dissolved with 0.5 ml DMSO and 0.5 ml of Tween 80. Saline solution was added to the final volume.
Thirty-two (32) SD rats (half female and half male) were evenly designated into 8 groups (4 for each group), and administered by oral gavage or intravenous injection (i.v.) (oral gavage at a dosage of 10 mg/kg or 30 mg/kg, and i.v. at a dosage of 5.0 mg/kg), respectively, at a volume of 10 ml/kg after fasting overnight.
0.1 ml of blood was sampled before, and 0.5, 1, 2, 4, 6, 8, 11, and 24 hours after administration, collected in a heparinized test tube, and centrifuged at 3500 rpm for 10 minutes to separate the plasma, which was stored at −20° C. The animals were allowed access to feed 2 hours after administration.
The content of the test compound in the plasma of rats after administration of the compound by oral gavage was determined by LC/MS/MS.

[3] = female, New Zealand, plasma, intravenous injection 5 mg/kg
[4] = female, New Zealand, plasma, oral 30 mg/kg
[5] = both sexes, Sprague-Dawley, plasma, iv, i.v. 5 mg/kg
[6] = both sexes, Sprague-Dawley, plasma, oral 10 mg/kg

For CONC(=O)Nc1ccc(-n2nc3c(c2CN(C)C)c(=O)n(-c2ccc(OC)nn2)c(=O)n3Cc2c(F)cccc2F)cc1 [Example 11, 1-(4-(7-(2,6-difluorobenzyl)-3-((dimethylamino)methyl)-5-(6-methoxypyridazin-3-yl)-4,6-dioxo-4,5,6,7-tetrahydro-2H-pyrazolo[3,4-d]pyrimidin-2-yl)phenyl)-3-methoxyurea], the AUC [1, 3] was 3410 ± 832 ng·h/mL, the half-life [1, 3] was 4.6 ± 2.7 h and the MRT [1, 3] was 2.39 ± 0.3 h. The Vd/F ([1]; female, New Zealand, plasma, oral 30 mg/kg, read-out: Apparent volume of distribution Vz/F) was 10.7 ± 3.86 L/kg, the AUC [1, 4] was 19000 ± 2310 ng·h/mL and the CL/F ([1]; female, New Zealand, plasma, oral 30 mg/kg, read-out: Clearance rate CL/F) was 26.6 ± 3.4 mL/min/kg. The half-life [1, 4] was 4.57 ± 1.06 h, the Cmax ([1]; female, New Zealand, plasma, oral 30 mg/kg, read-out: Plasma concentration Cmax) was 5040 ± 776 ng/mL and the MRT [1, 4] was 3.94 ± 0.55 h. For the same compound, the “Apparent volume of distribution Vz/F” value ([1]; intravenous injection 5 mg/kg) was 10.948 ± 7.749 L/kg, the “Clearance rate CL/F” value ([1]; intravenous injection 5 mg/kg) was 25.3 ± 5.5 mL/min/kg and the IC50 (human GnRHr) was 4.95 nM. The AUC [2, 5] was 2670 ± 1240 ng·h/mL, the half-life [2, 5] was 1.59 ± 0.5 h and the MRT [2, 5] was 2.25 ± 0.06 h. It also gave a Vd/F ([2]; both sexes, Sprague-Dawley, plasma, oral 10 mg/kg, read-out: Apparent volume of distribution Vz/F) of 3.29 ± 1.51 L/kg, an AUC [2, 6] of 4090 ± 1440 ng·h/mL and a CL/F ([2]; both sexes, Sprague-Dawley, plasma, oral 10 mg/kg, read-out: Clearance rate CL/F) of 44.2 ± 13.4 mL/min/kg. It also gave a half-life [2, 6] of 0.84 ± 0.18 h, a Cmax ([2]; both sexes, Sprague-Dawley, plasma, oral 10 mg/kg, read-out: Plasma concentration Cmax) of 2440 ± 873 ng/mL and an MRT [2, 6] of 1.56 ± 0.34 h. The “Apparent volume of distribution Vz/F” value ([2]; i.v. 5 mg/kg) was 4.929 ± 2.39 L/kg and the “Clearance rate CL/F” value ([2]; i.v. 5 mg/kg) was 35.4 ± 12.5 mL/min/kg.
